Results reported in patent publication US20230159931A1, “TARGETING THE PALMOTYLATION/DEPALMOTYLATION CYCLE TO TREAT INFLAMMATORY DISEASES” (CORNELL UNIVERSITY, priority 2020, published 2023).
Entries after “also recorded” stand apart in the source; their conditions may differ.

What was measured:
[1] = system: TH17 cell differentiation; test: TH17 cell differentiation of mouse splenocytes by flow cytometry (CD4- and IL-17-positive cells); type: cell-based; details: cytokine cocktail and different concentrations of ML349 for 4 days
Method: FIGS. 3A-3E. The STAT3 palmitoylation-depalmitoylation cycle promotes TH17 cell differentiation. (A) DHHC7 promotes phosphorylation of wild-type STAT3, but not of the C108S mutant, in mouse splenocytes. Left, STAT3 and p-STAT3 blots; right, quantification of the relative p-STAT3 levels. (B) TH17 cell differentiation was quantified in the splenocyte samples in A by flow cytometry. […] Mouse splenocytes were treated with a cytokine cocktail (3 ng ml^−1 TGF-β, 40 ng ml^−1 IL-6, 30 ng ml^−1 IL-23, 20 ng ml^−1 TNF and 10 ng ml^−1 IL-1β) and different concentrations of ML349 for 4 days, then collected and analysed by flow cytometry to detect CD4- and IL-17-positive cells. (D) DHHC7 knockout in splenocytes inhibits TH17 cell differentiation. Wild-type and DHHC7-knockout mouse splenocytes were treated with a cytokine cocktail for 4 days to initiate differentiation, then the cells were collected and analyse by flow cytometry to detect CD4- and IL-17-positive cells. (E) Left, STAT3 and p-STAT3 blots of wild-type and DHHC7-knockout splenocytes. Right, quantification of the relative p-STAT3 levels. Data are mean±s.e.m. **P<0.01.
Splenocytes were isolated from mice by classic methods. […]
For FACS analysis, flow cytometry was performed using 1×10^6 cells per sample. […] The cells were detected by Attune Flow Cytometer (Thermo Fisher) and analysed with FCS Express 6 software (De Novo Software).

[2] = system: STAT3 target genes (RORC and CCND1); test: Expression of STAT3 target genes under TH17 differentiation conditions (qPCR); type: cell-based; details: mouse spleen cells
Method: Splenocytes were isolated from mice by classic methods. In brief, the excised spleen was sliced into small pieces and placed onto a strainer (352350, Thermo Fisher) attached to a 50 ml conical tube. The sliced spleen was pressed through the strainer using the plunger end of a syringe and the cells were washed through the strainer with excess 4° C. PBS. The cell suspension was centrifuged at 500 g for 5 min at 4° C. The cell pellet was suspended in 2 ml of red blood cell lysing buffer (R7757, Sigma) for 5 min at RT and diluted with 30 ml PBS. The cells were centrifuged at 500 g for 5 min at RT. The cell pellet was suspended in 20 ml of 37° C. DMEM media, mixed well with 10 ml of Percoll density gradient media (17089102, VWR) and centrifuged at 2,500 g for 5 min at RT. The collected cells were seeded in 37° C. RPMI 1640 medium (12633012, Gibco) supplemented with 10% FBS at 5×10^6 cells per ml. Splenocytes were cultured under TH17-polarizing conditions: 3 ng ml^−1 TGF-β (100-21, PeproTech), 40 ng ml^−1 IL-6 (200-06, PeproTech), 30 ng ml^−1 IL-23 (200-23, PeproTech), 20 ng ml^−1 tumour necrosis factor (TNF) (300-01A, PeproTech) and 10 ng ml^−1 IL-1β (200-01B, PeproTech). […]
Because STAT3 is important for TH17 cell differentiation, the inventors evaluated whether the palmitoylation-depalmitoylation cycle of STAT3 promotes the generation of TH17 cells from mouse spleen cells. […]

SMILES: COc1ccc(N2CCN(C(=O)c3cc4c(s3)-c3ccccc3S(=O)(=O)C4)CC2)cc1 [ML349]
- differentiation of TH17 cells [1]: significantly decreased; also recorded: decreases TH17 cell differentiation in a dose-dependent manner
- expression of STAT3 target genes (RORC and CCND1) [2]: significantly decreased
